The results in this text go back to US10821115B2, “Compounds that inhibit Mcl-1 protein” (priority 2017, dated 2020).

Where two headings read alike, the source gives them in different places.

The target of experiment [1] is recombinant human Mcl-1 (residues 171-327) / Bim interaction (Homo sapiens (Human), UniProt Q07820). Description: biochemical. Type of experiment: binding. As to conditions: read-out: Mcl-1 HTRF IC50. (In general: In TR-FRET formats the signal depends on donor and acceptor labels being close together.)
Experiment [2] concerns human multiple myeloma cell line, OPM-2. Description: Cell viability assay (OPM-2 10 FBS), CellTiter-Glo. The class given is cell-based. In short, it runs like this: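 IC50 values come from 4-parameter logistic fits of luminescence signals reflecting cell viability. Treatment lasted 16 h at 37 °C in complete medium with 10% FBS, starting from 3000 cells/well.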
[3] abbreviates: TR-FRET, Mcl-1(171-327) / biotin-Bim (51-76).
Where [4] appears, read: read-out: OPM-2 10% FBS IC50 IP, OPM-2 cells, 10% FBS, 16 h, CellTiter-Glo.
[5] abbreviates: Homo sapiens, OPM-2, 16 h, read-out: OPM-2 10% FBS IC50 IP, OPM-2 cells, 10% FBS, 16 h, CellTiter-Glo.
Setting [6] is: 0.1 nM Mcl-1(171-327), 0.05 nM biotin-Bim (51-76).
The mark [7] stands for this setting: Homo sapiens, OPM-2, 16 h, read-out: OPM-2 10% FBS IC50 IP, OPM-2 cells, 10% FBS, 16 h incubation.

Sequence of recombinant human Mcl-1 (residues 171-327) / Bim interaction (Q07820 171-327): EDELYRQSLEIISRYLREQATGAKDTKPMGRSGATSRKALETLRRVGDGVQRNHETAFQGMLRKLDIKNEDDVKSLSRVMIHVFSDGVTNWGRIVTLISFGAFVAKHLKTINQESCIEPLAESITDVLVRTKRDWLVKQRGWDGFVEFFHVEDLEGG

With `C[C@@H]1[C@@H](C)CCC[C@@](O)(Cc2ccncn2)[C@@H]2CC[C@H]2CN2C[C@@]3(CCCc4cc(Cl)ccc43)COc3ccc(cc32)C(=O)NS1(=O)=O` [Example 100114, (1S,3′R,6′R,7′R,11′S,12′R)-6-chloro-7′-hydroxy-11′,12′-dimethyl-7′-(4-pyrimidinylmethyl)-3,4-dihydro-2H,15′H-spiro[naphthalene-1,22′-[20]oxa[13]thia[1,14]diazatetracyclo [14.7.2.0~3,6~.0~19,24~]pentacosa[16,18,24]trien]-15′-one 13′,13′-dioxide], the results for the IC50 in experiment [1] (setting [3]) and in experiment [2] (setting [4]) were 1.05 nM and 491 nM, respectively.

Turning to `C[C@@H]1[C@@H](C)CCC[C@@]2(CC(N(C)C)=NO2)[C@@H]2CC[C@H]2CN2C[C@@]3(CCCc4cc(Cl)ccc43)COc3ccc(cc32)C(=O)NS1(=O)=O` [Example 100197, (1S,3′R,6′R,7′R,11′S,12′R)-6-chloro-3″- (dimethylamino)-11′,12′-dimethyl-3,4-dihydro-2H,4″H,15′H-dispiro[naphthalene-1,22′-[20]oxa[13]thia[1,14]diazatetracyclo [14.7.2.0~3,6~.0~19,24~]pentacosa[16,18,24]triene-7′,5″-[1,2]oxazol]-15′-one 13′,13′-dioxide], the IC50 in experiment [1] (setting [3]) was determined as 0.774 nM; in experiment [2] (setting [5]), 2460 nM.

Consider `C[C@@H]1[C@@H](C)C/C=C/[C@@](O)(CC(=O)N2CCCC2)[C@@H]2CC[C@H]2CN2C[C@@]3(CCCc4cc(Cl)ccc43)COc3ccc(cc32)C(=O)NS1(=O)=O` [Example 100253, (1S,3′R,6′R,7′S,8′E,11′S,12′R)-6-chloro-7′-hydroxy-11′,12′-dimethyl-7′-(2-oxo-2-(1-pyrrolidinyl)ethyl)-3,4-dihydro-2H,15′H-spiro[naphthalene-1,22′-[20]oxa[13]thia[1,14]diazatetracyclo [14.7.2.0~3,6~.0~19,24~]pentacosa[8,16,18,24]tetraen]-15′-one 13′,13′-dioxide], for which the IC50 in experiment [1] (setting [3]) came to 0.149 nM; in experiment [2] (setting [4]), 544 nM.

In the case of `CO[C@@]1(CC(=O)N(C)CCN2CCOCC2)/C=C/C[C@H](C)[C@@H](C)S(=O)(=O)NC(=O)c2ccc3c(c2)N(C[C@@H]2CC[C@H]21)C[C@@]1(CCCc2cc(Cl)ccc21)CO3` [Example 100377, 2-((1S,3′R,6′R,7′S,8′E,11′S,12′R)-6-chloro-7′-methoxy-11′,12′-dimethyl-13′,13′-dioxido-15′-oxo-3,4-dihydro-2H-spiro[naphthalene-1,22′-[20]oxa[13]thia[1,14]diazatetracyclo [14.7.2.0~3,6~.0~19,24~]pentacosa[8,16,18,24]tetraen]-7′-yl)-N-methyl-N-(2-(4-morpholinyl)ethyl)acetamide], the values for the half-maximal inhibitory concentration (IC50) in experiment [1] (setting [3]) and in experiment [2] (setting [5]) were 0.107 nM and 182 nM, respectively.

In the case of `CO[C@@]1(CC2=NCC(=O)O2)/C=C/C[C@H](C)[C@@H](C)S(=O)(=O)NC(=O)c2ccc3c(c2)N(C[C@@H]2CC[C@H]21)C[C@@]1(CCCc2cc(Cl)ccc21)CO3` [Example 100549, (1S,3′R,6′R,7′S,8′E,11′S,12′R)-6-chloro-7′-methoxy-11′,12′-dimethyl-7′-((5-oxo-4,5-dihydro-1,3-oxazol-2-yl)methyl)-3,4-dihydro-2H,15′H-spiro[naphthalene-1,22′-[20]oxa[13]thia[1,14]diazatetracyclo [14.7.2.0~3,6~.0~19,24~]pentacosa[8,16,18,24]tetraen]-15′-one 13′,13′-dioxide], the IC50 in experiment [1] (setting [3]) turned out to be 2.57 nM; in experiment [2] (setting [5]) it was 545 nM.

Consider `C[C@@H]1[C@@H](C)C/C=C/[C@@](O)(C[S@@+](C)[O-])[C@@H]2CC[C@H]2CN2C[C@@]3(CCCc4cc(Cl)ccc43)COc3ccc(cc32)C(=O)NS1(=O)=O` (stereo in doubt) [Example 100074], for which the IC50 is 0.731 nM in experiment [1] (setting [3]) and 3020 nM in experiment [2] (setting [5]).

As to `CO[C@@]1(C#CCN2CCN3CCOC[C@@H]3C2)/C=C/C[C@H](C)[C@@H](C)S(=O)(=O)NC(=O)c2ccc3c(c2)N(C[C@@H]2CC[C@H]21)C[C@@]1(CCCc2cc(Cl)ccc21)CO3` [Example 100518, (1S,3′R,6′R,7′S,8′E,11′S,12′R)-6-chloro-7′-(3-((9aS)-hexahydropyrazino[2,1-c][1,4]oxazin-8(1H)-yl)-1-propyn-1-yl)-7′-methoxy-11′,12′-dimethyl-3,4-dihydro-2H,15′H-spiro[naphthalene-1,22′-[20]oxa[13]thia[1,14]diazatetracyclo [14.7.2.0~3,6~.0~19,24~]pentacosa[8,16,18,24]tetraen]-15′-one 13′,13′-dioxide], the IC50 was 0.427 nM in experiment [1] (setting [3]) and 668 nM in experiment [2] (setting [5]).

For `CC[C@]1(OCCN2CCOCC2)/C=C/C[C@H](C)[C@@H](C)S(=O)(=O)NC(=O)c2ccc3c(c2)N(C[C@@H]2CC[C@H]21)C[C@@]1(CCCc2cc(Cl)ccc21)CO3` (single isomer, unassigned) [Example 100481], the figures for the IC50 in experiment [1] (setting [3]) and in experiment [2] (setting [5]) were 0.094 nM and 152 nM, respectively.

For `CO[C@@]1(CN2CCN3CCN(C(C)C)C[C@@H]3C2)/C=C/C[C@H](C)[C@@H](C)S(=O)(=O)NC(=O)c2ccc3c(c2)N(C[C@@H]2CC[C@H]21)C[C@@]1(CCCc2cc(Cl)ccc21)CO3` (single isomer, unassigned) [Example 240], the IC50 in experiment [1] (setting [6]) was 0.128 nM; in experiment [2] (read-out: OPM-2 10% FBS IC50 IP, OPM-2 cells, 10% FBS, 16 h incubation), 141 nM.

For `C[C@@H]1[C@@H](C)CCC[C@@](C)(O)[C@@H]2CC[C@H]2CN2C[C@@]3(CCCc4cc(Cl)ccc43)COc3ccc(cc32)C(=O)NS1(=O)=O` (single isomer, unassigned) [Example 100048], the IC50 in experiment [1] (setting [3]) came to 0.187 nM; in experiment [2] (setting [5]) it was 551 nM.

For `C[C@@H]1[C@@H](C)C/C=C/[C@](O)(CCO)[C@@H]2CC[C@H]2CN2C[C@@]3(CCCc4cc(Cl)ccc43)COc3ccc(cc32)C(=O)NS1(=O)=O` [Example 100175, (1S,3′R,6′R,7′R,8′E,11′S,12′R)-6-chloro-7′-hydroxy-7′-(2-hydroxyethyl)-11′,12′-dimethyl-3,4-dihydro-2H,15′H-spiro[naphthalene-1,22′-[20]oxa[13]thia[1,14]diazatetracyclo [14.7.2.0~3,6~.0~19,24~]pentacosa[8,16,18,24]tetraen]-15′-one 13′,13′-dioxide], the IC50 in experiment [1] (setting [3]) was 0.149 nM; in experiment [2] (setting [5]) it was 452 nM.

As for `C[C@@H]1[C@@H](C)C/C=C/[C@@](O)(c2ccncc2)[C@@H]2CC[C@H]2CN2C[C@@]3(CCCc4cc(Cl)ccc43)COc3ccc(cc32)C(=O)NS1(=O)=O` (single isomer, unassigned) [Example 100392], the figures for the IC50 in experiment [1] (setting [3]) and in experiment [2] (setting [5]) were 0.112 nM and 129 nM, respectively.

On to `COCCN(C)C(=O)C[C@]1(OC)/C=C/C[C@H](C)[C@@H](C)S(=O)(=O)NC(=O)c2ccc3c(c2)N(C[C@@H]2CC[C@H]21)C[C@@]1(CCCc2cc(Cl)ccc21)CO3` [Example 100005, 2-((1 S,3′R,6′R,7′S,8′E,11′S, 12′R)-6-chloro-7′-methoxy-11′,12′-dimethyl-13′,13′-dioxido-15′-oxo-3,4-dihydro-2H-spiro[naphthalene-1,22′-[20]oxa[13]thia[1,14]diazatetracyclo[14.7.2.0-3,6˜.0˜19,24˜]pentacosa[8,16,18,24]tetraen]-7′-yl)-N-(2-methoxyethyl)-N-methylacetamide], for which the IC50 in experiment [1] (setting [3]) is 0.091 nM; in experiment [2] (setting [5]) it was 62 nM.

In the case of `CO[C@@]1(CN2CCN(C3(C#N)COC3)CC2)/C=C/C[C@H](C)[C@@H](C)S(=O)(=O)NC(=O)c2ccc3c(c2)N(C[C@@H]2CC[C@H]21)C[C@@]1(CCCc2cc(Cl)ccc21)CO3` [Example 272, 3-(4-(((1S,3′R,6′R,7′S,8′E,11′S,12′R )-6-chloro-7′-methoxy-11′,12′-dimethyl-13′,13′-dioxido-15′-oxo-3,4-dihydro-2H-spiro[naphthalene-1,22′-[20]oxa[13]thia[1,14]diazatetracyclo [14.7.2.0~3,6~.0~19,24~]pentacosa[8,16,18,24]tetraen]-7′-yl)methyl)-1-piperazinyl)-3-oxetanecarbonitrile], the IC50 in experiment [1] (setting [6]) stood at 0.144 nM; in experiment [2] (setting [7]), 137 nM.

In the case of `CO[C@@]1(CN2CCN3CCOC[C@H]3C2)/C=C/C[C@H](C)[C@@H](C)S(=O)(=O)NC(=O)c2ccc3c(c2)N(C[C@@H]2CC[C@H]21)C[C@@]1(CCCc2cc(Cl)ccc21)CO3` [Example 57, (1S,3′R,6′R,7′S,8′E,11′S,12′R)-6-chloro-7′-((9aR)-hexahydropyrazino[2,1-c][1,4]oxazin-8(1H)-ylmethyl)-7′-methoxy-11′,12′-dimethyl-3,4-dihydro-2H,15′H-spiro[naphthalene-1,22′-[20]oxa[13]thia[1,14]diazatetracyclo [14.7.2.0~3,6~.0~19,24~]pentacosa[8,16,18,24]tetraen]-15′-one 13′,13′-dioxide], the IC50 worked out at 0.258 nM in experiment [1] (setting [6]) and 90 nM in experiment [2] (setting [7]).

On to `CCOC(=O)COC[C@]1(OCC(=O)OCC)CCCC[C@@H](CC)S(=O)(=O)NC(=O)c2ccc3c(c2)N(C[C@@H]2CC[C@H]21)C[C@@]1(CCCc2cc(Cl)ccc21)CO3` [Example 100042, ethyl (((1S,3′R,6′R,7′S,12′R)-6-chloro-7′-(2-ethoxy-2-oxoethoxy)-12′-ethyl-13′,13′-dioxido-15′-oxo-3,4-dihydro-2H-spiro[naphthalene-1,22′-[20]oxa[13]thia[1,14]diazatetracyclo [14.7.2.0~3,6~.0~19,24~]pentacosa[16,18,24]trien]-7′-yl)methoxy)acetate], for which the IC50 was 4.86 nM in experiment [1] (setting [3]) and 2220 nM in experiment [2] (setting [5]).

What is called IC50 is the concentration that inhibits the measured activity by half.
